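Values below derive from 48-hour exposures of cells grown in 96-well plates, with endpoints linearly interpolated between the two concentrations bracketing the appropriate inhibition level. Definition used: TGI = concentration required for complete inhibition of growth.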
Experiments:
Assay in all cases: NCI-60 cell line screen, 48 h
ACHN renal = tested on: ACHN renal
HOP-18 NSCLC = tested on: HOP-18 NSCLC
OVCAR-8 ovarian = tested on: OVCAR-8 ovarian
SK-OV-3 ovarian = tested on: SK-OV-3 ovarian
HCC-2998 colon = tested on: HCC-2998 colon
M14 melanoma = tested on: M14 melanoma
SW-620 colon = tested on: SW-620 colon
LOX IMVI melanoma = tested on: LOX IMVI melanoma
K-562 leukemia = tested on: K-562 leukemia
HOP-92 NSCLC = tested on: HOP-92 NSCLC
OVCAR-5 ovarian = tested on: OVCAR-5 ovarian
SF-268 CNS = tested on: SF-268 CNS
HCT-15 colon = tested on: HCT-15 colon
XF 498 CNS = tested on: XF 498 CNS
MALME-3M melanoma = tested on: MALME-3M melanoma
CCRF-CEM leukemia = tested on: CCRF-CEM leukemia
UACC-257 melanoma = tested on: UACC-257 melanoma
HL-60(TB) leukemia = tested on: HL-60(TB) leukemia
HCT-116 colon = tested on: HCT-116 colon
SK-MEL-5 melanoma = tested on: SK-MEL-5 melanoma
OVCAR-3 ovarian = tested on: OVCAR-3 ovarian
A498 renal = tested on: A498 renal
SF-295 CNS = tested on: SF-295 CNS
NCI-H23 lung = tested on: NCI-H23 lung
SR leukemia = tested on: SR leukemia
DMS 114 small cell lung = tested on: DMS 114 small cell lung
NCI-H522 lung = tested on: NCI-H522 lung
RXF-631 renal = tested on: RXF-631 renal
RPMI-8226 leukemia = tested on: RPMI-8226 leukemia
LXFL 529 NSCLC = tested on: LXFL 529 NSCLC
SN12C renal = tested on: SN12C renal
SF-539 CNS = tested on: SF-539 CNS
U251 CNS = tested on: U251 CNS
SNB-78 CNS = tested on: SNB-78 CNS
SK-MEL-28 melanoma = tested on: SK-MEL-28 melanoma
SNB-19 CNS = tested on: SNB-19 CNS
KM20L2 colon = tested on: KM20L2 colon
SNB-75 CNS = tested on: SNB-75 CNS
HT29 colon = tested on: HT29 colon
TK-10 renal = tested on: TK-10 renal
KM12 colon = tested on: KM12 colon
RXF 393 renal = tested on: RXF 393 renal
MOLT-4 leukemia = tested on: MOLT-4 leukemia
DMS 273 small cell lung = tested on: DMS 273 small cell lung
IGROV1 ovarian = tested on: IGROV1 ovarian
UACC-62 melanoma = tested on: UACC-62 melanoma
DLD-1 colon = tested on: DLD-1 colon
EKVX NSCLC = tested on: EKVX NSCLC
A549 NSCLC = tested on: A549 NSCLC
SK-MEL-2 melanoma = tested on: SK-MEL-2 melanoma
UO-31 renal = tested on: UO-31 renal
NCI-H460 lung = tested on: NCI-H460 lung
COLO 205 colon = tested on: COLO 205 colon

`C1=CCN(c2ccccc2)CC1` gave a TGI (ACHN renal) of 56.8 µM, a TGI (HOP-18 NSCLC) greater than 100 µM and a TGI (OVCAR-8 ovarian) of 81.2 µM. It also gave a TGI (SK-OV-3 ovarian) greater than 100 µM, a TGI (HCC-2998 colon) greater than 100 µM and a TGI (M14 melanoma) of 44.8 µM. For the same compound, the TGI (SW-620 colon) was 47.3 µM, the TGI (LOX IMVI melanoma) was greater than 100 µM and the TGI (K-562 leukemia) was greater than 100 µM. For the same compound, the TGI (HOP-92 NSCLC) was 61.6 µM, the TGI (OVCAR-5 ovarian) was greater than 100 µM and the TGI (SF-268 CNS) was greater than 100 µM. The TGI (HCT-15 colon) was 47.1 µM, the TGI (XF 498 CNS) was 40.6 µM and the TGI (MALME-3M melanoma) was 46.8 µM. It also gave a TGI (CCRF-CEM leukemia) greater than 100 µM, a TGI (UACC-257 melanoma) greater than 100 µM and a TGI (HL-60(TB) leukemia) of 90.1 µM. It also gave a TGI (HCT-116 colon) greater than 100 µM, a TGI (SK-MEL-5 melanoma) greater than 100 µM and a TGI (OVCAR-3 ovarian) of 61.2 µM. For the same compound, the TGI (A498 renal) was greater than 100 µM, the TGI (SF-295 CNS) was greater than 100 µM and the TGI (NCI-H23 lung) was greater than 100 µM. The TGI (SR leukemia) was greater than 100 µM, the TGI (DMS 114 small cell lung) was greater than 100 µM and the TGI (NCI-H522 lung) was 30.4 µM. It also gave a TGI (RXF-631 renal) greater than 100 µM, a TGI (RPMI-8226 leukemia) greater than 100 µM and a TGI (LXFL 529 NSCLC) of 43.3 µM. For the same compound, the TGI (SN12C renal) was 87 µM, the TGI (SF-539 CNS) was greater than 100 µM and the TGI (U251 CNS) was greater than 100 µM. The TGI (SNB-78 CNS) was greater than 100 µM, the TGI (SK-MEL-28 melanoma) was 73.9 µM and the TGI (SNB-19 CNS) was greater than 100 µM. The TGI (KM20L2 colon) was greater than 100 µM, the TGI (SNB-75 CNS) was greater than 100 µM and the TGI (HT29 colon) was 87.3 µM. It also gave a TGI (TK-10 renal) greater than 100 µM, a TGI (KM12 colon) greater than 100 µM and a TGI (RXF 393 renal) of 35.7 µM. It also gave a TGI (MOLT-4 leukemia) greater than 100 µM, a TGI (DMS 273 small cell lung) greater than 100 µM and a TGI (IGROV1 ovarian) of 96.3 µM. The TGI (UACC-62 melanoma) was greater than 100 µM, the TGI (DLD-1 colon) was greater than 100 µM and the TGI (EKVX NSCLC) was greater than 100 µM. It also gave a TGI (A549 NSCLC) greater than 100 µM, a TGI (SK-MEL-2 melanoma) greater than 100 µM and a TGI (UO-31 renal) greater than 100 µM. The TGI (NCI-H460 lung) was greater than 100 µM and the TGI (COLO 205 colon) was greater than 100 µM.
